This assay concerns the target T1, heat shock 70 kDa protein 8 isoform 1 (SEQ ID NO: 52) (Homo sapiens, UniProt P11142).
T1 construct: endogenous in cells; host or cells: neutrophil-like differentiated HL-60 cells
As to the kind of experiment: chemical crosslinking experiment, streptavidin beads, electrophoresis (receptor identification). The class given is binding. The note with it: differentiated HL-60 cells. The procedure:
Then, in order to identify directly the receptor molecules to which these functional peptides are bound, the following chemical crosslinking experiment was performed. That is, the HL-60 cells differentiated into the neutrophil-like cells were suspended in HBHS (not containing 0.1% BSA). The suspension was centrifuged (1,000 rpm, 5 minutes, 4° C.) and the supernatant was removed. The cells were suspended again in the HBHS not containing BSA so as to have the cell density of 5.6×10^6 cells/ml. The obtained cell suspension was preincubated at 37° C. for 10 minutes at first, and 1/10 volume of mitocryptide-3 and -5, [Cys^0]mitocryptide-3, [Cys^0]mitocryptide-5, [Cys^24]mitocryptide-3, and peptides obtained by introducing biotin into the N terminals thereof (N-biotinyl-mitocryptide-3, N-biotinyl-mitocryptide-5, N-biotinyl-[Cys^0]mitocryptide-3, N-biotinyl-[Cys^0]mitocryptide-5, and N-biotinyl-[Cys^24]mitocryptide-3) were added to have the final concentration of 10 μM, followed by incubation at 37° C. for 30 minutes. After that, the cell suspension was centrifuged (5,000 rpm, 4° C., 1 minute) and the supernatant was removed. The resultant cells were resuspended in HBHS not containing BSA and centrifuged again to wash the cells. 1 ml of a buffer for dissolving cells (100 mM NaCl, 20 mM Tris-HCl, 1 mM EDTA, 77.5 mTIU/ml aprotinin, 1 μM leupeptin, 1 μg/ml pepstatin A, 1 μg/ml phosphoramidone, 1% CHAPS, pH 7.5) with respect to 1 ml of the original cell suspension was added to the cell precipitate, and the mixture was incubated at 4° C. for 30 minutes to dissolve the cells, thereby a cell lysate was prepared. The cell lysate was centrifuged (15,000 rpm, 4° C., 15 minutes) and the supernatant was centrifuged again in the same condition. The obtained supernatant was incubated with streptavidin beads at 4° C. for 30 minutes, then, the beads were washed by centrifugation with the buffer for dissolving cells three times. Further, the beads were treated by heat at 100° C. for 10 minutes in the buffer for dissolving cells, and the mixture was centrifuged. The obtained supernatant was subjected to an SDS gel electrophoresis to separate the contained protein. Then, the gel was stained by silver stain method, thereby the proteins were analyzed. […] As a result, two specific spots were detected (FIG. 15-A). Therefore, the protein was extracted and degraded with trypsin, and then, the degraded proteins were analyzed by mass spectrometry.

Where no end group is shown, it is not given here.

T1 sequence (P11142 whole entry, canonical isoform): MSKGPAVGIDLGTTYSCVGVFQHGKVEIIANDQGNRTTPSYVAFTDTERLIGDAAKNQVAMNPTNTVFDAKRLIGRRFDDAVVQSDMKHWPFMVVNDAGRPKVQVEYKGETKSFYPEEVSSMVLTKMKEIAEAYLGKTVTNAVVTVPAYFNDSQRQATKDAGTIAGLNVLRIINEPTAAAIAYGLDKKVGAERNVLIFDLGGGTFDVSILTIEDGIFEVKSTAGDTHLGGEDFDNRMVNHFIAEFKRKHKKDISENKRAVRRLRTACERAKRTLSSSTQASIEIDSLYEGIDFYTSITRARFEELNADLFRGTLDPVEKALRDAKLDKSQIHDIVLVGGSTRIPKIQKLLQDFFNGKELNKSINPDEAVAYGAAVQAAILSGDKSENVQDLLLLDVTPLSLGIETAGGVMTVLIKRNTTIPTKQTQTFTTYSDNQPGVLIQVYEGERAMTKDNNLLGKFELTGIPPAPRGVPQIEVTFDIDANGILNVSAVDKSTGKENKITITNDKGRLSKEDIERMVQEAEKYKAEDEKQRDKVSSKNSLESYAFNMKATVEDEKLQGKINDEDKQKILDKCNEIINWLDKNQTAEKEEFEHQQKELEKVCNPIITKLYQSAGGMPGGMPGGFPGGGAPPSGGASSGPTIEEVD

For MLWNLLALHQIGQRTISTASHRH [No. 019], the “competition for binding of the protein to N-biotinyl-[Cys^0]mitocryptide-5” value is listed as “competitive”.
